One data set has as its system CD-1 mice. Put plainly: Toxicity studies: expression levels of ALT and AST after ASS1 mRNA-loaded lipid nanoparticles. In kind it is in vivo, mouse. As for the experimental part: (§1) All studies were performed using male CD-1 mice of approximately 6-8 weeks of age at the beginning of each experiment. Samples were introduced by a single bolus tail-vein injection of an equivalent total dose of 1.0 mg/kg (or otherwise specified) of encapsulated ASS1 mRNA. Mice were sacrificed and perfused with saline at the designated time points.
All animals were euthanized by CO2 asphyxiation at designated time points post dose administration (±5%) followed by thoracotomy and terminal cardiac blood collection. Whole blood (maximal obtainable volume) will be collected via cardiac puncture on euthanized animals into serum separator tubes, allowed to clot at room temperature for at least 30 minutes, centrifuged at 22° C.±5° C. at 9300 g for 10 minutes, and the serum will be extracted. For interim blood collections, approximately 40-50 μL of whole blood will be collected via facial vein puncture or tail snip. Samples collected from non treatment animals were used as a baseline ASS1 levels for comparison to study animals.
The chiral compounds of formula I generally yielded lower expression levels of ALT and/or AST, i.e., correlating to lower liver toxicity issues, compared to stereochemically non-enriched, or stereochemically less enriched, compositions of the same lipid.

The subject of data set [1] is human ASS1 protein production in wild type mouse liver. As to the kind of experiment: In vivo human ASS1 protein production (ELISA) via hASS1 mRNA-loaded lipid nanoparticles. The following applies: Table 1, human ASS1 by ELISA, CD-1 mice, single bolus intravenous injection, 1.0 mg/kg encapsulated ASS1 mRNA, twenty-four hours post-injection. As for the experimental part:
as §1
The liver, spleen, kidney and heart of each mouse was harvested, apportioned into separate parts, and stored in either 10% neutral buffered formalin or snap-frozen and stored at −80° C. for analysis.
Human ASS1 ELISA: Standard ELISA procedures were followed employing mouse anti-ASS1 2D1-2E12 IgG as the capture antibody with rabbit anti-ASS1 #3285 IgG as the secondary (detection) antibody (Shire Human Genetic Therapies). Horseradish peroxidase (HRP)-conjugated goat anti-rabbit IgG was used for activation of the 3,3′,5,5′-tetramethylbenzidine (TMB) substrate solution. The reaction was quenched using 2N H2SO4 after 20 minutes. Detection was monitored via absorption (450 nm) on a Molecular Device SpectraMax instrument. Untreated mouse serum and organs and human ASS1 protein were used as negative and positive controls, respectively.
The production of human ASS1 protein via codon-optimized hASS1 mRNA-loaded lipid nanoparticles, comprising compounds of formula I, was tested in CD-1 mice as a single, bolus intravenous injection, as described above. FIG. 1 depicts the amount of human ASS1 protein detected via ELISA when treating mice human ASS1 mRNA-loaded lipid nanoparticles, with various racemic and chiral compounds of formula I, at 1.0 mg/kg doses. The mice were sacrificed twenty-four hours post-injection and organs, such as livers, were harvested.
(In general: An ELISA detects its analyte on a solid surface through an enzyme-linked reagent.)

Setting [2] is: Table 1, ASS1 mRNA-loaded lipid nanoparticles with the named cKK-E12 composition as cationic lipid, mice, intravenous.
[3] abbreviates: Table 2, single intravenous dose, 24 hours post, formulation cKK-E12:DOPE:Chol:DMG-PEG2K, several lots per structure, listed as S4-RS/SR, in U/L.
The mark [4] stands for this setting: Table 2, single intravenous dose, 24 hours post, formulation cKK-E12:DOPE:Chol:DMG-PEG2K, several lots per structure, in U/L.

The record followed here is US11104652B2, “Stereochemically enriched compositions for delivery of nucleic acids” (TRANSLATE BIO, INC., priority 2014, dated 2021).

“And” between values parts separate entries of the source, which are not always exact repeats. Equal values may be shown once.

Turning to `CCCCCCCCCC[C@H](O)CN(CCCC[C@@H]1NC(=O)[C@@H](CCCCN(C[C@@H](O)CCCCCCCCCC)C[C@@H](O)CCCCCCCCCC)NC1=O)C[C@@H](O)CCCCCCCCCC` [S4-S,R-cKKE12], in the data set with CD-1 mice (setting [2]), the ALT is 190 ± 75 U/L and the AST came to 193 ± 71 U/L. Also, in the data set on CD-1 mice (setting [3]), the ALT is 143 ± 29 and 189 ± 47 and 190 ± 75; the AST was 240 ± 98 and 203 ± 87 and 193 ± 71. For the same compound, in data set [1], the “ASS1 (ng/mg Total Protein)” value stood at 2303 ± 491 ng/mg Total Protein.

Consider `CCCCCCCCCC[C@H](O)CN(CCCC[C@H]1NC(=O)[C@@H](CCCCN(C[C@@H](O)CCCCCCCCCC)C[C@@H](O)CCCCCCCCCC)NC1=O)C[C@@H](O)CCCCCCCCCC` [S4-RR], for which, in the data set on CD-1 mice (setting [4]), the ALT is on record as 152 ± 9 and the AST is listed as 180 ± 42.

In the case of `CCCCCCCCCC[C@H](O)CN(CCCCC1NC(=O)C(CCCCN(C[C@@H](O)CCCCCCCCCC)C[C@@H](O)CCCCCCCCCC)NC1=O)C[C@@H](O)CCCCCCCCCC` (mixture of isomers) [S4 with Racemic Lysine Core], in the data set with CD-1 mice (setting [2]), the ALT is 170 ± 40 U/L and 155 ± 57 U/L; the AST is 132 ± 44 U/L and 157 ± 38 U/L. For the same compound, the “ASS1 (ng/mg Total Protein)” value in data set [1] (1 mg/kg) was 375 ± 244 ng/mg Total Protein and 674 ± 147 ng/mg Total Protein.

In the data set with CD-1 mice (setting [2]), `CCCCCCCCCCC(O)CN(CCCC[C@@H]1NC(=O)[C@H](CCCCN(CC(O)CCCCCCCCCC)CC(O)CCCCCCCCCC)NC1=O)CC(O)CCCCCCCCCC` (stereo in doubt) [R4-S,S-cKKE12, (3S,6S)-3,6-bis(4-(bis((S)-2-hydroxydodecyl)amino)butyl)piperazine-2,5-dione] came in with an ALT of 175 ± 102 U/L and an AST of 144 ± 35 U/L. Moreover, in the data set with CD-1 mice (setting [4]), the ALT was 175 ± 102 and the AST is on record as 144 ± 35. The “ASS1 (ng/mg Total Protein)” value in data set [1] is 449 ± 105 ng/mg Total Protein.

With `CCCCCCCCCC[C@@H](O)CN(CCCCC1NC(=O)C(CCCCN(C[C@H](O)CCCCCCCCCC)C[C@H](O)CCCCCCCCCC)NC1=O)C[C@H](O)CCCCCCCCCC` (mixture of isomers) [R4 with Racemic Lysine Core], in the data set with CD-1 mice (setting [2]), the ALT is 188 ± 22 U/L and 236 ± 163 U/L; the AST is 265 ± 122 U/L and 237 ± 139 U/L. Moreover, the “ASS1 (ng/mg Total Protein)” value in data set [1] (1 mg/kg) is 823 ± 215 ng/mg Total Protein and 568 ± 248 ng/mg Total Protein.

As for `CCCCCCCCCC[C@@H](O)CN(CCCC[C@H]1NC(=O)[C@@H](CCCCN(C[C@H](O)CCCCCCCCCC)C[C@H](O)CCCCCCCCCC)NC1=O)C[C@H](O)CCCCCCCCCC` [R4-RR], in the data set with CD-1 mice (setting [4]), the ALT is 136 ± 34 and the AST was 194 ± 80.

Consider `CCCCCCCCCC[C@H](O)CN(CCCC[C@@H]1NC(=O)[C@H](CCCCN(C[C@@H](O)CCCCCCCCCC)C[C@@H](O)CCCCCCCCCC)NC1=O)C[C@@H](O)CCCCCCCCCC` [S4-S,S-cKKE12, (3S,6S)-3,6-bis(4-(bis((S)-2-hydroxydodecyl)amino)butyl)piperazine-2,5-dione], for which, in the data set with CD-1 mice (setting [2]), the ALT is listed as 226 ± 71 U/L and the AST is 384 ± 233 U/L. Also, in the data set on CD-1 mice (setting [4]), the ALT came to 226 ± 71 and the AST came out at 384 ± 233. The “ASS1 (ng/mg Total Protein)” value in data set [1] worked out at 1121 ± 468 ng/mg Total Protein.

Consider `CCCCCCCCCCC(O)CN(CCCC[C@@H]1NC(=O)[C@H](CCCCN(CC(O)CCCCCCCCCC)CC(O)CCCCCCCCCC)NC1=O)CC(O)CCCCCCCCCC` (mixture of isomers) [Racemic —OH with SS Lysine Core], for which, in the data set with CD-1 mice (setting [2]), the ALT is 378 ± 58 U/L and 618 ± 503 U/L; the AST was 622 ± 76 U/L and 638 ± 273 U/L. Besides, in data set [1] (1 mg/kg), the “ASS1 (ng/mg Total Protein)” value was 117 ± 80 ng/mg Total Protein and 209 ± 169 ng/mg Total Protein.
